≈ marks a conversion by molar mass, not a printed value.
What was measured:
[1] = biological target: CTX-M15 (Escherichia coli, UniProt Q9EXV5); assay: In vitro enzyme inhibition assay (nitrocefin hydrolysis), CTX-M15; type: biochemical; conditions: nitrocefin 50µM, 10mM HEPES pH 7.5; numeric value
Procedure: (§1) Compound dilution was performed in DMSO.

[2] = tested on: NTBC091.1 (E. coli strain expressing KPC-2, TEM-1); assay: Meropenem potentiation, broth micro-dilution MIC, strain NTBC091.1; type: cell-based; conditions: for MIC mero + 4 µg/mL inhibitor: NTBC091.1, MIC of meropenem with 4 µg/mL of the labelled compound; for MIC of combination with meropenem compared with the combination of meropenem and avibactam: strain NTBC091.1
[3] = tested on: NTBC096.1 (K. pneumoniae strain expressing OXA-181 and SHV-11); assay: Meropenem potentiation, broth micro-dilution MIC, strain NTBC096.1; type: cell-based
[4] = biological target: AmpC; assay: In vitro enzyme inhibition assay (nitrocefin hydrolysis), AmpC; type: biochemical; conditions: nitrocefin 100µM, 10mM HEPES pH 7.5; banded; read-out: Amp-C mean IC50
Procedure: as §1

[5] = tested on: NTBC093 (E. cloacae strain expressing KPC-2, TEM-1); assay: Meropenem potentiation, broth micro-dilution MIC, strain NTBC093; type: cell-based; conditions: for MIC mero + 4 µg/mL inhibitor: NTBC093, MIC of meropenem with 4 µg/mL of the labelled compound, banded
[6] = tested on: NTBC189 (K. pneumoniae strain expressing TEM-OSBL(b), CTX-M-14, OXA-48(c)); assay: Meropenem potentiation, broth micro-dilution MIC, strain NTBC189; type: cell-based
[7] = tested on: clinical strains of Enterobacteriaceae that are resistant to betalactam antibiotics (produce OXA variants of SBL enzymes); assay: Cumulative MIC against large panel of resistant clinical strains (Figure 1); type: cell-based; conditions: at an MIC of 1 µg/mL, Example 10 in combination with meropenem
Text: The data is presented in Figure 1 in the standard cumulative MIC fashion.

[8] = tested on: NTBC099 (K. pneumoniae strain expressing KPC-3, SHV-11 and TEM-1); assay: microbe, parasite or virus in culture; type: cell-based; conditions: Klebsiella pneumoniae, read-out: MIC mero, µg/mL, no inhibitor
[9] = tested on: panel of 48 A. baumannii strains that are resistant to betalactam antibiotics (produces OXA variants of SBL enzymes); assay: Cumulative MIC against panel of 48 resistant strains (Figure 2); type: cell-based; conditions: in the presence of 16 µg/mL of each inhibitor, Example 10 in combination with meropenem
Text: The data is presented in Figure 2 in the standard cumulative MIC fashion.

[10] = Klebsiella pneumoniae, read-out: MIC mero, µg/mL, no inhibitor

CTX-M15, sequence (Q9EXV5 29-291, species assumed): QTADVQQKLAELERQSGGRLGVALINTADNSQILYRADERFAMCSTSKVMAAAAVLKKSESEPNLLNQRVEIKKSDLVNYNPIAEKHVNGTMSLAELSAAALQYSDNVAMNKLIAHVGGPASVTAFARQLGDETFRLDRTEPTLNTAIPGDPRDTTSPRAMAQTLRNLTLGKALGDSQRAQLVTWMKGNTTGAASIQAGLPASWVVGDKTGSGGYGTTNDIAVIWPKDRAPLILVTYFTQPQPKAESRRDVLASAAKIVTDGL

**Q.** For NC(=O)[C@@H]1CC[C@@H]2CN1C(=O)N2OS(=O)(=O)O [Avibactam, avibactam], which IC50 [1] is on record?
**A.** 1.4 nM

**Q.** And the “MIC mero + 4 µg/mL inhibitor” value ([2]; numeric)?
**A.** 0.06 (A) µg/mL

**Q.** And the “MIC mero + 4 µg/mL inhibitor” value ([3]; NTBC096.1, MIC of meropenem with 4 µg/mL of the labelled compound, numeric)?
**A.** 1(B) µg/mL

**Q.** O=C1N2C[C@@H](CC[C@H]2C(F)(F)F)N1OS(=O)(=O)[O-].[Na+] [Example 1, Sodium (2S, 5R)-7-oxo-2-(trifluoromethyl)-1,6-diazabicyclo[3.2.1]octan-6-yl sulfate] was tested. Which IC50 [4] did it give?
**A.** < 10 nM

**Q.** And the “MIC mero + 4 µg/mL inhibitor” value ([2]; banded)?
**A.** (A) (MIC < 1 µg/mL (A))

**Q.** And the “MIC mero + 4 µg/mL inhibitor” value ([2]; numeric)?
**A.** 0.03 µg/mL

**Q.** And the “MIC of combination with meropenem compared with the combination of meropenem and avibactam” value [2]?
**A.** lower

**Q.** How did the IC50 [4] turn out when O=C1N2C[C@@H](CC[C@H]2C(F)F)N1OS(=O)(=O)[O-].[Na+] [Example 2, Sodium (2S, 5R)-7-oxo-2-(difluoromethyl)-1,6-diazabicyclo[3.2.1]octan-6-yl sulfate] was run?
**A.** 10 to 40 nM

**Q.** And the “MIC mero + 4 µg/mL inhibitor” value ([2]; banded)?
**A.** (A) (MIC < 1 µg/mL (A))

**Q.** And the “MIC mero + 4 µg/mL inhibitor” value ([2]; numeric)?
**A.** 0.03 µg/mL

**Q.** What about the “MIC of combination with meropenem compared with the combination of meropenem and avibactam” value [2] of the same compound?
**A.** lower

**Q.** For O=C1N2C[C@@H](CC[C@H]2C(Cl)Cl)N1OS(=O)(=O)[O-].[Na+] [Example 3, Sodium (2S,5R)-2-(dichloromethyl)-7-oxo-1,6-diazabicyclo[3.2.1]octan-6-yl sulfate], which IC50 [4] is on record?
**A.** 40 to 60 nM

**Q.** And the “MIC mero + 4 µg/mL inhibitor” value ([2]; banded)?
**A.** (A) (MIC < 1 µg/mL (A))

**Q.** What about the “MIC mero + 4 µg/mL inhibitor” value [5] of the same compound?
**A.** (A) (MIC < 1 µg/mL (A))

**Q.** With O=C1N2C[C@@H](CC[C@H]2CF)N1OS(=O)(=O)[O-].[Na+] [Example 4, Sodium (2S, 5R)-2-(fluoromethyl)-7-oxo-1,6-diazabicyclo[3.2.1]octan-6-yl sulphate] as the compound, how does the IC50 [4] read?
**A.** < 10 nM

**Q.** And the “MIC mero + 4 µg/mL inhibitor” value ([2]; banded)?
**A.** (A) (MIC < 1 µg/mL (A))

**Q.** And the “MIC mero + 4 µg/mL inhibitor” value [5]?
**A.** (A) (MIC < 1 µg/mL (A))

**Q.** What does the source list for CC(F)(F)[C@@H]1CC[C@@H]2CN1C(=O)N2OS(=O)(=O)[O-].[Na+] [Example 5, Sodium (2S, 5R)-2-(1,1-difluoroethyl)-7-oxo-1,6-diazabicyclo[3.2.1]octan-6-yl sulphate]?
**A.** IC50 [4]: 40 to 60 nM; MIC mero + 4 µg/mL inhibitor ([2]; banded): (A) (MIC < 1 µg/mL (A)); MIC mero + 4 µg/mL inhibitor [5]: (A) (MIC < 1 µg/mL (A))

**Q.** For O=C1N2C[C@@H](CC[C@H]2CCl)N1OS(=O)(=O)[O-].[Na+] [Example 6, Sodium (2S, 5R)-2-(chloromethyl)-7-oxo-1,6-diazabicyclo[3.2.1]octan-6-yl sulphate], which IC50 [4] is on record?
**A.** 10 to 40 nM

**Q.** What about the “MIC mero + 4 µg/mL inhibitor” value ([2]; banded) of the same compound?
**A.** (A) (MIC < 1 µg/mL (A))

**Q.** And the “MIC mero + 4 µg/mL inhibitor” value [5]?
**A.** (A) (MIC < 1 µg/mL (A))

**Q.** With O=C1N2C[C@@H](CC[C@H]2SC(F)(F)F)N1OS(=O)(=O)[O-].[Na+] [Example 7, Sodium (2R, 5R)-7-oxo-2-[(trifluoromethyl)sulfanyl]-1,6-diazabicyclo[3.2.1]octan-6-yl sulphate] as the compound, how does the IC50 [4] read?
**A.** 40 to 60 nM

**Q.** What about the “MIC mero + 4 µg/mL inhibitor” value ([2]; banded) of the same compound?
**A.** (A) (MIC < 1 µg/mL (A))

**Q.** What about the “MIC mero + 4 µg/mL inhibitor” value [5] of the same compound?
**A.** (B) (MIC = 1 or 2 µg/mL (B))

**Q.** Which IC50 [4] does the source give for O=C1N2C[C@@H](CC[C@H]2COC(F)(F)F)N1OS(=O)(=O)[O-].[Na+] [Example 8, Sodium (2S, 5R)-7-oxo-2-[(trifluoromethoxy)methyl]-1,6-diazabicyclo[3.2.1]octan-6-yl sulphate] here?
**A.** 40 to 60 nM

**Q.** What about the “MIC mero + 4 µg/mL inhibitor” value ([2]; banded) of the same compound?
**A.** (A) (MIC < 1 µg/mL (A))

**Q.** And the “MIC mero + 4 µg/mL inhibitor” value [5]?
**A.** (A) (MIC < 1 µg/mL (A))

**Q.** Which results are given for O=C1N2C[C@@H](CC[C@H]2C(F)(F)c2nccs2)N1OS(=O)(=O)[O-].[Na+] [Example 9, Sodium (2S, 5R)-2-[difluoro(1,3-thiazol-2-yl)methyl]-7-oxo-1,6-diazabicyclo[3.2.1]octan-6-yl sulphate]?
**A.** IC50 [4]: < 10 nM; MIC mero + 4 µg/mL inhibitor ([2]; banded): (A) (MIC < 1 µg/mL (A)); MIC mero + 4 µg/mL inhibitor [5]: (A) (MIC < 1 µg/mL (A))

**Q.** Which results are given for O=C1N2C[C@@H](CC[C@H]2F)N1OS(=O)(=O)[O-].[Na+] [Example 10, Sodium (2R,5R)-2-fluoro-7-oxo-1,6-diazabicyclo[3.2.1]octan-6-yl sulfate]?
**A.** IC50 [4]: 10 to 40 nM; MIC mero + 4 µg/mL inhibitor ([2]; banded): (A) (MIC < 1 µg/mL (A)); MIC of combination with meropenem compared with the combination of meropenem and avibactam [2]: lower; MIC mero + 4 µg/mL inhibitor [5]: (A) (MIC < 1 µg/mL (A)); MIC of combination with meropenem compared with the combination of meropenem and avibactam ([5]; strain NTBC093): similar; MIC of combination with meropenem compared with the combination of meropenem and avibactam ([3]; strain NTBC096.1): lower; MIC of combination with meropenem compared with the combination of meropenem and avibactam ([6]; strain NTBC189): lower; fraction of strains susceptible [7]: over 90%

**Q.** Which results are given for O=C1N2C[C@@H](CC[C@@H]2F)N1OS(=O)(=O)[O-].[Na+] [Example 11, Sodium (2S, 5R)-2-fluoro-7-oxo-1,6-diazabicyclo [3.2.1] octan-6-yl sulfate]?
**A.** IC50 [4]: > 60 nM; MIC mero + 4 µg/mL inhibitor ([2]; banded): (A) (MIC < 1 µg/mL (A)); MIC mero + 4 µg/mL inhibitor [5]: (B) (MIC = 1 or 2 µg/mL (B))

**Q.** O=C1N2C[C@@H](CC[C@H]2Cl)N1OS(=O)(=O)[O-].[Na+] [Example 12, Sodium (2R,5R)-2-chloro-7-oxo-1,6-diazabicyclo[3.2.1]octan-6-yl sulfate] was tested. Which IC50 [4] did it give?
**A.** < 10 nM

**Q.** And the “MIC mero + 4 µg/mL inhibitor” value ([2]; banded)?
**A.** (A) (MIC < 1 µg/mL (A))

**Q.** What about the “MIC of combination with meropenem compared with the combination of meropenem and avibactam” value [2] of the same compound?
**A.** lower

**Q.** What about the “MIC mero + 4 µg/mL inhibitor” value [5] of the same compound?
**A.** (A) (MIC < 1 µg/mL (A))

**Q.** Which results are given for C[C@@H](O)[C@H]1C(=O)N2C(C(=O)O)=C(S[C@@H]3CN[C@H](C(=O)N(C)C)C3)[C@H](C)[C@H]12 [meropenem, reference compound]?
**A.** MIC ([2]; Escherichia coli, read-out: MIC mero, µg/mL, no inhibitor): 4 µg/mL; MIC ([5]; Enterobacter cloacae, read-out: MIC mero, µg/mL, no inhibitor): 8 µg/mL; MIC [3, 10]: 32 µg/mL; MIC [8]: 256 µg/mL (≈ 668 µM); MIC [6, 10]: 32 µg/mL; fraction of strains susceptible [7]: 0%; fraction of strains susceptible [9]: less than 10%

From patent EP3670512A1, “DIAZABICYCLOOCTANONES AS INHIBITORS OF SERINE BETA-LACTAMASES” (Antabio SAS, priority 2018, dated 2020)
